Laboratory results from patent publication US20250154525A1, “PLANT VIRUS MOVEMENT PROTEINS AND METHODS OF USING SAME” (Molecular Transfer, Inc., priority 2016, published 2025).

Key:
HeLa Cells [1] = experiment: GFP transfection with DOTMA/SEQ ID NO: 72 (fusogenic peptide)/peptide compared with Lipofectamine 2000; assay type: cell-based
How it was run: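 DOTMA/DOPE (1:1 molar) lipid mixed with polyarginine- or polylysine-tagged cell-surface-ligand peptide, complexed 10 min with EF1alpha eGFP plasmid at 10 μg/mL in OptiMEM, fusogenic peptide at 0.1 mg/mL final; HeLa cells ~70% confluent given 0.01 mL complex. GFP read by fluorescence plate reader and microscopy (% cells transfected) after 42 h at 37° C; Lipofectamine 2000 as comparator.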

some examined cell types = experiment: Summary of Example 1: transfection expression and % cells transfected over the no peptide control; assay type: cell-based; conditions: on some examined cell types
How it was run: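 Cells at 70% confluence received DNA complexes of EF1Alpha eGFP plasmid with DOTMA/DOPE (1:1) plus oligo-Arg- or oligo-Lys-tagged peptide ligands, formed 10 min at room temperature. After 42 h at 37 °C, 5% CO2, GFP read by plate reader and % transfected cells judged microscopically, relative to lipid without peptide.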

HeLa Cells [2] = experiment: GFP plasmid transfection with DOTMA/DOPE plus surface ligand peptide, fluorescent plate reader (Example 1); assay type: cell-based; conditions: DOTMA/DOPE + peptide linked to R12 or K16; EF1Alpha eGFP plasmid; 42 hours
Jurkat Cells = experiment: as above; assay type: cell-based; conditions: DOTMA/DOPE + peptide linked to R12 or K16; EF1Alpha eGFP plasmid; 42 hours
How it was run: (§1)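 DOTMA/DOPE (1:1 molar) plus peptide bearing a poly-Arg or poly-Lys tag was complexed 10 min with EF1alpha eGFP plasmid in OptiMEM, then added to 70%-confluent cells (0.01 mL fibroblasts; 0.02 mL C2C12, Jurkat). After 42 h at 37 °C, GFP was read by plate reader and compared with DOTMA without ligand.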

NL-1 iPS Cells = experiment: as above; assay type: cell-based; conditions: DOTMA/DOPE + peptide linked to R12 or K16; EF1Alpha eGFP plasmid; 42 hours
HuVec Cells = experiment: as above; assay type: cell-based; conditions: DOTMA/DOPE + peptide linked to R12 or K16; EF1Alpha eGFP plasmid; 42 hours
How it was run: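 HuVEC cells in 96 well plates at 70% confluence were transfected with EF1Alpha eGFP plasmid using a 1:1 molar DOTMA/DOPE lipid mixed with a surface ligand peptide carrying a covalently attached nucleic acid binding moiety. Complexes formed for 10 minutes, 0.01 mL went to each well, cells were incubated 42 hours at 37° C., and fluorescence was read on a plate reader.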

Human Fibroblast Cells = experiment: as above; assay type: cell-based; conditions: DOTMA/DOPE + peptide linked to R12 or K16; EF1Alpha eGFP plasmid; 42 hours
How it was run: as §1

C2C12 Cells = experiment: as above; assay type: cell-based, mouse; conditions: DOTMA/DOPE + peptide linked to R12 or K16; EF1Alpha eGFP plasmid; 42 hours
How it was run: as §1

[3] = 0.1 μL of DOTMA/SEQ ID NO: 72/Peptide in well of a 96 well plate
[4] = 0.2 μL of DOTMA/SEQ ID NO: 72/Peptide in well of a 96 well plate
[5] = 0.3 μL of DOTMA/SEQ ID NO: 72/Peptide in well of a 96 well plate
[6] = 0.4 μL of DOTMA/SEQ ID NO: 72/Peptide in well of a 96 well plate

Substance | Relative Fluorescence DOTMA/SEQ ID NO: 72/Peptide, HeLa Cells (RF) (HeLa Cells [1]; [3]) | Relative Fluorescence DOTMA/SEQ ID NO: 72/Peptide, HeLa Cells (RF) (HeLa Cells [1]; [4]) | Relative Fluorescence DOTMA/SEQ ID NO: 72/Peptide, HeLa Cells (RF) (HeLa Cells [1]; [5]) | Relative Fluorescence DOTMA/SEQ ID NO: 72/Peptide, HeLa Cells (RF) (HeLa Cells [1]; [6]) | transfection expression and % cells transfected over the no peptide control (some examined cell types) | Relative Fluorescence of Transfection of HeLa Cells (RF) (HeLa Cells [2]) | Relative Fluorescence of Transfection of Jurkat Cells (RF) (Jurkat Cells) | Relative Fluorescence of Transfection of NL-1 iPS Cells (RF) (NL-1 iPS Cells) | Relative Fluorescence of Transfection of HuVec Cells (RF) (HuVec Cells) | Relative Fluorescence of Transfection of Human Fibroblast Cells (RF) (Human Fibroblast Cells) | Relative Fluorescence of Transfection of C2C12 Cells (RF) (C2C12 Cells)
358 (GHRGPTGRPGKRGKQGQKGDS) [compound 358] | 12331 | 12683 | 13686 | 11097 | increased transfection expression and the % cells transfected | 15132 | 18820 | 21956 | 25398 | 5665 | 2271
355 (FRHRNRKGY) [compound 355] | 18362 | 27990 | 22367 | 18289 | increased transfection expression and the % cells transfected | 32628 | 8132 | 7910 | 14810 | 6821 | 1900
450 (TAGSCLRKFSCL) [compound 450] | 11962 | 17346 | 12553 | 10241 | increased transfection expression and the % cells transfected | 21045 | 8779 | 29856 | 20911 | 6996 | 3795
351 (LNRQELFPFG) [compound 351] | 7678 | 11499 | 10575 | 8791 | increased transfection expression and the % cells transfected | 12279 | 9730 | 24646 | 15379 | 8061 | 3530
323 (HQQDLGTAGSCLRKFSTMFLF) [compound 323] | 15537 | 16620 | 10839 | 9244 | increased transfection expression and the % cells transfected | 14067 | 2900 | 21694 | 12815 | 4826 | 7698
350 (SIGFRGDGQTC) [compound 350] | 24092 | 23238 | 19802 | 22255 | increased transfection expression and the % cells transfected | 13313 | 9184 | 19132 | 13163 | 7105 | 2631
342 (TAGSCLRKFSTM) [compound 342] | 41299 | 36040 | 28841 | 18351 | increased transfection expression and the % cells transfected | 33666 | 12825 | 11493 | 12804 | 9525 | 9496
237 (KNSFMALYLSKG) [compound 237] | 8986 | 9753 | 8015 | 8288 | increased transfection expression and the % cells transfected | 21288 | 1501 | 8632 | 2302 | 2184 | 6491
268 (GGFLKYTVSYDI) [compound 268] | 10162 | 9934 | 10792 | 9519 | increased transfection expression and the % cells transfected | 25885 | 3236 | 15697 | 5403 | 4568 | 2568
353 (KKQRFRHRNRKGYRSQ) [compound 353] | 36315 | 44772 | 36882 | 25802 | increased transfection expression and the % cells transfected | 29119 | 11107 | 9248 | 8772 | 8653 | 4291
452 (CNYYSNSYSFWLASLNPER) [compound 452] | 6276 | 12671 | 12047 | 10918 | increased transfection expression and the % cells transfected | 13888 | 2554 | 10349 | 1841 | 2779 | 21798
367 (TDIPPCPHGWISLWK) [compound 367] | 10427 | 21411 | 23001 | 17529 | increased transfection expression and the % cells transfected | 39008 | 4365 | 17545 | 13354 | 10036 | 16207
